Data as given in article doi:10.1101/2021.10.07.463234v2 (biorxiv, 2021).
Counter-ions that a name gives are not always drawn.

Biological target: SARS-CoV-2 Mac1 (Severe acute respiratory syndrome coronavirus 2, UniProt P0DTD1)
Experiment: biochemical
Settings: for inhibition at 100 µM: read-out: %inhibition; for %inhibition: 100 µM, inhibitor

SMILES | inhibition at 100 µM [%] | %inhibition [%]
Cn1nnc(-c2ccc(-c3ccc(N4C[C@H](CO)OC4=O)cc3F)cn2)n1 [Tedizolid] | 0 | 
O=c1[nH]c(=O)n(C2CCCO2)cc1F (stereo not shown) [Tegafur (FT-207, NSC 148958)] | 0 | 
CCCCCNC(=N)N/N=C/c1c[nH]c2ccc(OC)cc12 [Tegaserod Maleate] | 1.73 | 
CCC[C@H](NC(=O)[C@@H]1[C@H]2CCC[C@H]2CN1C(=O)[C@@H](NC(=O)[C@@H](NC(=O)c1cnccn1)C1CCCCC1)C(C)(C)C)C(=O)C(=O)NC1CC1 [Telaprevir (VX-950)] |  | 0
Cc1cn([C@@H]2C[C@@H](O)[C@H](CO)O2)c(=O)[nH]c1=O [Telbivudine] | 0 | 
CCCc1nc2c(C)cc(-c3nc4ccccc4n3C)cc2n1Cc1ccc(-c2ccccc2C(=O)O)cc1 [Telmisartan] | 27.9 | 
CCOC(=O)[C@@H](N)Cc1ccc(-c2cc(O[C@H](c3ccc(Cl)cc3-n3ccc(C)n3)C(F)(F)F)nc(N)n2)cc1 [Telotristat Etiprate (LX 1606 Hippurate)] | 0 | 
CCOC(=O)[C@H](CCc1ccccc1)N[C@H]1CS[C@H](c2cccs2)CN(CC(=O)O)C1=O [Temocapril HCl] | 0 | 
Cn1nnc2c(C(N)=O)ncn2c1=O [Temozolomide] | 34.1 | 
CO[C@H]1C[C@@H]2CC[C@@H](C)[C@@](O)(O2)C(=O)C(=O)N2CCCC[C@H]2C(=O)O[C@H]([C@H](C)C[C@@H]2CC[C@@H](OC(=O)C(C)(CO)CO)[C@H](OC)C2)CC(=O)[C@H](C)/C=C(\C)[C@@H](O)[C@@H](OC)C(=O)[C@H](C)C[C@H](C)/C=C/C=C/C=C/1C [Temsirolimus (CCI-779, NSC 683864)] | 14.6 | 
Cc1cc(N2CCN([C@@H]3CN[C@H](C(=O)N4CCSC4)C3)CC2)n(-c2ccccc2)n1 [Teneligliptin hydrobromide] | 6.56 | 
COc1cc([C@@H]2c3cc4c(cc3[C@@H](O[C@@H]3O[C@@H]5CO[C@@H](c6cccs6)O[C@H]5[C@H](O)[C@H]3O)[C@H]3COC(=O)[C@H]23)OCO4)cc(OC)c1O [Teniposide] | 12.8 | 
CC(C)OC(=O)[C@H](C)N[P@](=O)(CO[C@H](C)Cn1cnc2c(N)ncnc21)Oc1ccccc1 [Tenofovir Alafenamide (GS-7340)] | 10.7 | 
CC(C)OC(=O)OCOP(=O)(CO[C@H](C)Cn1cnc2c(N)ncnc21)OCOC(=O)OC(C)C [Tenofovir Disoproxil Fumarate] | 0 | 
C[C@H](Cn1cnc2c(N)ncnc21)OCP(=O)(O)O [Tenofovir] | 0 | 
CN1C(C(=O)Nc2ccccn2)=C(O)c2sccc2S1(=O)=O [Tenoxicam] | 0 | 
CN1CCC(COc2cnc(-c3cccc(Cn4nc(-c5cccc(C#N)c5)ccc4=O)c3)nc2)CC1 [Tepotinib (EMD 1214063)] | 0 | 
CC(=O)CC/C=C(\C)CC/C=C(\C)CC/C=C(\C)CCC=C(C)C [Teprenone] | 30.7 | 
COc1cc2nc(N3CCN(C(=O)C4CCCO4)CC3)nc(N)c2cc1OC (stereo not shown) [Terazosin HCl Dihydrate] |  | 6.293
COc1cc2nc(N3CCN(C(=O)C4CCCO4)CC3)nc(N)c2cc1OC (stereo not shown) [Terazosin HCl] |  | 2.055
CN(C/C=C/C#CC(C)(C)C)Cc1cccc2ccccc12 [Terbinafine HCl] |  | 13.33
CN(C/C=C/C#CC(C)(C)C)Cc1cccc2ccccc12 [Terbinafine] |  | 49.96
CC(C)(C)NCC(O)c1cc(O)cc(O)c1 (stereo not shown) [Terbutaline Sulfate] | 0 | 
CC(C)(C)c1ccc(C(O)CCCN2CCC(C(O)(c3ccccc3)c3ccccc3)CC2)cc1 (stereo not shown) [Terfenadine] | 11 | 
C/C(O)=C(\C#N)C(=O)Nc1ccc(C(F)(F)F)cc1 [Teriflunomide] | 12.5 | 
